The term Ki denotes the dissociation constant of the complex between target and ligand, obtained from inhibition or displacement. Lower therefore signals higher affinity.

Our source for the Ki and Ratio Ki values is ChEMBL document CHEMBL1138460, “Synthesis of a new opioid ligand having the oxabicyclo[3.2.1]octane skeleton using a new rearrangement reaction” (Bioorg Med Chem Lett, 2009).

The structures appear in SMILES notation.

The target in one test is Mu-type opioid receptor (Cavia porcellus, UniProt P97266). The test is described as follows: Displacement of [3H]DAMGO from mu opioid receptor in guinea pig forebrain.
Chain of Mu-type opioid receptor (P97266 whole entry): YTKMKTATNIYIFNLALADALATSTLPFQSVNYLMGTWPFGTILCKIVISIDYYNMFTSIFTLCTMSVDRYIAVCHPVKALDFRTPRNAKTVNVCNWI
Test [1] has as its target Opioid receptor (mu and kappa) (Cavia porcellus) (UniProt P41144+P97266). The experiment in a line: Ratio of Ki for guinea pig mu opioid receptor to Ki for guinea pig kappa opioid receptor.
A short description of test [2]: Displacement of [3H]NTI from delta opioid receptor in guinea pig forebrain. The arrangement: species or system Cavia porcellus. A general note: Loss of bound radioactivity is the signal in a displacement assay; it reports binding, not function.
For test [3], the target named is Kappa-type opioid receptor (Cavia porcellus, UniProt P41144). The experiment in a line: Displacement of [3H]U69593 from kappa opioid receptor in guinea pig cerebellum. Type of test: tissue-based.
Chain of Kappa-type opioid receptor (P41144 whole entry): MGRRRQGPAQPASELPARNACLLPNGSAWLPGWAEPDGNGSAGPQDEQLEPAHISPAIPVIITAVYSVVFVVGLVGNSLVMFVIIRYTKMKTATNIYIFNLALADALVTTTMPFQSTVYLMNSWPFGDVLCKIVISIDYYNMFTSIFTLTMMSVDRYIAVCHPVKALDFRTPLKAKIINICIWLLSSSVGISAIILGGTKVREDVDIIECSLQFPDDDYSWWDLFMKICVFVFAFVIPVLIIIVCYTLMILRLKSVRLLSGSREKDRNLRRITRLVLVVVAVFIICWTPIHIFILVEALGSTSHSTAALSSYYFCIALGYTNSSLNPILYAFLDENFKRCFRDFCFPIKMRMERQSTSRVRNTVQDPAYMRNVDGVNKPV

Chain of Opioid receptor (mu and kappa) (Cavia porcellus) (P41144 whole entry, looked up): as the sequence (P41144 whole entry) above
Chain of Opioid receptor (mu and kappa) (Cavia porcellus) (P97266 whole entry, looked up): as the sequence (P97266 whole entry) above

Consider `OC[C@]12CC[C@@]3(O1)[C@H]1Cc4ccc(O)cc4[C@@]3(CCN1CC1CC1)C2`, for which the Ki was 0.145 nM at Mu-type opioid receptor, 3.5 nM in test [2] and 0.102 nM in test [3]. For the same molecule, the Ratio Ki in test [1] turned out to be 1.42.
Consider `O=C1C[C@]23CCN(CC4CC4)[C@H](Cc4ccc(O)cc42)[C@]32CC[C@H]1O2`, for which the inhibition constant Ki amounted to 0.397 nM at Mu-type opioid receptor, 6.84 nM in test [2] and 0.233 nM in test [3]. Further, the Ratio Ki in test [1] turned out to be 1.7.
As for `O=C1CC[C@@]2(O)[C@H]3Cc4ccc(O)c5c4[C@@]2(CCN3CC2CC2)[C@H]1O5` [NALTREXONE], the Ki in test [2] is 20.7 nM.
